Test system: M0 macrophages differentiated from THP-1
Experiment: Intracellular activity of M0 macrophages, flux analyzer (OCR)
Format: cell-based, human
Conditions: M0, 3 ppm, 48 hours, versus solvent (DMSO) alone
Protocol: M0 macrophages, M1 macrophages and M2 macrophages induced to differentiate from THP-1 by the same method as Experiment 2 were measured for intracellular activity using an XFe24 (24-well) extracellular flux analyzer by Agilent Technologies (previously Seahorse Bioscience) (hereunder referred to as “flux analyzer”), with reference to Nat Immunol, 2014. 15(9): pp 846-855 (NPL 14). A flux analyzer is a device that allows non-invasive, highly sensitive periodic measurement of cells to determine the state of glycolysis as the main cellular energy metabolism pathway, and aerobic respiration by mitochondria.
Using a flux analyzer, oligomycin (ATP synthase inhibitor) (“Oligo”), FCCP (uncoupling agent) and rotenone (mitochondrial complex I inhibitor)+antimycin A (mitochondria complex III inhibitor) (“Rot+Ant”) were added at predetermined times and the oxygen consumption rate (OCR) and extracellular acidification rate (ECAR) were measured. The ECAR and OCR values used were the basal OCR and basal ECAR values at 18.3 minutes after measurement. Each measured value was calibrated by the number of cells determined by counting the cell nuclei stained by addition of Hoechst.
M0, M1 and M2 differentiated from THP-1 were prepared by the same method as Experiment 2, and hakushinin extract (hakushinin hydrolysate) prepared by the same method as Experiment 13 was added to the M0 (at 0.3 ppm, 1 ppm or 3 ppm). At 48 hours after incubation, the oxygen consumption rate (OCR) was measured using a flux analyzer. Each measured value was calibrated by the number of cells determined by counting the cell nuclei stained by addition of Hoechst (FIG. 21).
M0 and M2 differentiated from THP-1 were prepared by the same method as Experiment 2, linoleic acid, linolenic acid or juniperonic acid (3 ppm) was added to M0, and after 48 hours the oxygen consumption rate (OCR) was measured with a flux analyzer by the same method as Experiment 15. Each measured value was calibrated by the number of cells determined by counting the cell nuclei stained by addition of Hoechst.
The Basal OCR and mitochondrial respiration values for M0 were examined with the incubation time changed to 24 hours after addition of the hakushinin extract or unsaturated fatty acid. The experiment method was carried out by the same method as described in Experiment 17, except that the incubation time was changed to 24 hours after addition of the hakushinin extract or unsaturated fatty acid.

| SMILES | Basal OCR | mitochondrial respiration |
| --- | --- | --- |
| CC/C=C\C/C=C\C/C=C\CCCC/C=C\CCCC(=O)O [juniperonic acid] | not significantly different | not significantly different |
| CCCCC/C=C\C/C=C\CCCCCCCC(=O)O [linoleic acid] | not significantly different | not significantly different |

From patent publication US20230172837A1, “AGENT FOR PREVENTING AND/OR IMPROVING PHOTOAGING AND/OR DERMAL PIGMENTATION, COSMETIC METHOD USING SAME, AND COSMETIC DEVICE TO BE APPLIED IN SAID METHOD” (SHISEIDO COMPANY, LTD., priority 2020, published 2023)
